From ChEMBL document CHEMBL4190346, “Structure-based design, synthesis, and biological evaluation of withaferin A-analogues as potent apoptotic inducers” (Eur J Med Chem, 2017)
Numbered stars: 1 amine (or outer) side, 2 acyl side, 3 side chain; on linkers, the order of the positions; unused ones are H or OH. Bridge positions count the residues as written; N and C are the ends. Square brackets hold non-standard residues; d marks the D form. Peptide text beside a SMILES is read from it. I, II: the chains in the order shown. Actinocin(1to9) = Cc1c2oc3c(C)ccc(C(=O)[*:2])c3nc-2c(C(=O)[*:1])c(N)c1=O; NMeV = CN[C@H](C(=O)O)C(C)C; Sar = CNCC(=O)O

Assays:
A549 [1] = assay: Cytotoxicity against human A549 cells assessed as reduction in cell viability using compound addition to cell culture cells in lag phase of growth and incubated for 48 hrs by MTT assay; format: functional, cell-based
MCF7 [2] = assay: Cytotoxicity against human MCF7 cells assessed as reduction in cell viability using compound addition to cell culture cells in log phase of growth and incubated for 48 hrs by MTT assay; format: functional, cell-based
HeLa [3] = assay: Cytotoxicity against human HeLa cells assessed as reduction in cell viability using compound addition to cell culture cells in lag phase of growth and incubated for 48 hrs by MTT assay; format: functional, cell-based
A549 [4] = assay: Cytotoxicity against human A549 cells assessed as reduction in cell viability using compound addition to cell culture cells in log phase of growth and incubated for 48 hrs by MTT assay; format: functional, cell-based
HeLa [5] = assay: Cytotoxicity against human HeLa cells assessed as reduction in cell viability using compound addition to cell culture cells in log phase of growth and incubated for 48 hrs by MTT assay; format: functional, cell-based
Vero [6] = assay: Cytotoxicity against African green monkey Vero cells assessed as reduction in cell viability using compound addition to cell culture cells in log phase of growth and incubated for 48 hrs by MTT assay; format: cell-based, Chlorocebus sabaeus
Vero [7] = assay: Cytotoxicity against African green monkey Vero cells assessed as reduction in cell viability using compound addition to cell culture cells in lag phase of growth and incubated for 48 hrs by MTT assay; format: cell-based, Chlorocebus sabaeus
MCF7 [8] = assay: Cytotoxicity against human MCF7 cells assessed as reduction in cell viability using compound addition to cell culture cells in lag phase of growth and incubated for 48 hrs by MTT assay; format: functional, cell-based
[9] = Homo sapiens, A549, 48 h, read-out: IC50
[10] = Homo sapiens, MCF7, 48 h, read-out: IC50
[11] = Homo sapiens, HeLa, 48 h, read-out: IC50
[12] = Chlorocebus sabaeus, Vero, 48 h, read-out: IC50

| Compound | IC50 (A549 [1]; [9]) [µM] | IC50 (MCF7 [2]; [10]) [µM] | IC50 (HeLa [3]; [11]) [µM] | IC50 (A549 [4]; [9]) [µM] | IC50 (HeLa [5]; [11]) [µM] | IC50 (Vero [6]; [12]) [µM] | IC50 (Vero [7]; [12]) [µM] | IC50 (MCF7 [8]; [10]) [µM] | IC50 (A549 [1]; a549) | IC50 (MCF7 [2]; mcf7) | IC50 (HeLa [3]; hela) | IC50 (A549 [4]; a549) | IC50 (HeLa [5]; hela) | IC50 (Vero [6]; vero) | IC50 (Vero [7]; vero) | IC50 (MCF7 [8]; mcf7) |
| --- | --- | --- | --- | --- | --- | --- | --- | --- | --- | --- | --- | --- | --- | --- | --- | --- |
| CCCCCCCC(=O)OCC1=C(C)C[C@H]([C@@H](C)[C@H]2CC[C@H]3[C@@H]4C[C@H](Cl)[C@]5(O)[C@@H](O)C=CC(=O)[C@]5(C)[C@H]4CC[C@]23C)OC1=O | 31.3 | 13.8 | 29.5 | > 40 | 32.9 | 16.1 | 16.4 | 15.1 | – | – | – | – | – | – | – | – |
| CO[C@H]1CC(=O)[C@]2(C)[C@H]3CC[C@]4(C)[C@@H]([C@H](C)[C@H]5CC(C)=C(CO)C(=O)O5)CC[C@H]4[C@@H]3C[C@H]3O[C@]32[C@H]1O | > 40 | > 40 | > 40 | > 40 | > 40 | > 40 | > 40 | > 40 | – | – | – | – | – | – | – | – |
| C=C1C(=O)O[C@@H]([C@@H](C)[C@H]2CC[C@H]3[C@@H]4C[C@H]5O[C@]56[C@@H](O)[C@@H](OC)CC(=O)[C@]6(C)[C@H]4CC[C@]23C)C=C1C | > 40 | 23 | > 40 | > 40 | > 40 | > 40 | > 40 | > 40 | – | – | – | – | – | – | – | – |
| CC1=C(CCl)C(=O)O[C@@H]([C@@H](C)[C@H]2CC[C@H]3[C@@H]4C[C@H]5O[C@]56[C@@H](O)C=CC(=O)[C@]6(C)[C@H]4CC[C@]23C)C1 | 2 | 1 | 2.5 | 3.6 | 2.8 | 0.6 | 0.5 | 1.1 | – | – | – | – | – | – | – | – |
| CC1=C(CO)C(=O)O[C@@H]([C@@H](C)[C@H]2CC[C@H]3[C@@H]4C[C@@H]5ON[C@@H]6CC(=O)[C@](C)([C@H]4CC[C@]23C)[C@@]5(O)[C@H]6O)C1 | > 40 | > 40 | > 40 | > 40 | > 40 | > 40 | > 40 | > 40 | – | – | – | – | – | – | – | – |
| CC1=C(CCl)C(=O)O[C@@H]([C@@H](C)[C@H]2CC[C@H]3[C@@H]4C[C@H]5O[C@]56[C@H](Cl)C=CC(=O)[C@]6(C)[C@H]4CC[C@]23C)C1 | 9.6 | 4.8 | 3.1 | 18.1 | 7.9 | 3.1 | 1.9 | 4.1 | – | – | – | – | – | – | – | – |
| CCCCCCCC(=O)OCC1=C(C)C[C@H]([C@@H](C)[C@H]2CC[C@H]3[C@@H]4C[C@H](Cl)[C@]5(O)[C@@H](OC(=O)CCCCCCC)C=CC(=O)[C@]5(C)[C@H]4CC[C@]23C)OC1=O | > 40 | > 40 | > 40 | > 40 | > 40 | > 40 | > 40 | > 40 | – | – | – | – | – | – | – | – |
| CC(=O)OCC1=C(C)C[C@H]([C@@H](C)[C@H]2CC[C@H]3[C@@H]4C[C@H]5O[C@]56[C@@H](O)C=CC(=O)[C@]6(C)[C@H]4CC[C@]23C)OC1=O | – | 4.6 | – | – | 10.2 | 5.9 | – | – | – | – | – | – | – | – | – | – |
| CCCCCCCCCCCC(=O)OCC1=C(C)C[C@H]([C@@H](C)[C@H]2CC[C@H]3[C@@H]4C[C@H]5O[C@]56[C@@H](OC(=O)CCCCCCCCCCC)C=CC(=O)[C@]6(C)[C@H]4CC[C@]23C)OC1=O | – | – | – | – | – | – | – | – | Nd(Insoluble) | Nd(Insoluble) | Nd(Insoluble) | Nd(Insoluble) | Nd(Insoluble) | Nd(Insoluble) | Nd(Insoluble) | Nd(Insoluble) |
| CCCCN[C@H]1CC(=O)[C@]2(C)[C@H]3CC[C@]4(C)[C@@H]([C@H](C)[C@H]5CC(C)=C(CO)C(=O)O5)CC[C@H]4[C@@H]3C[C@H]3O[C@]32[C@H]1O | 21.8 | 6.9 | 9.6 | 9.6 | 8.4 | 20.6 | 13.6 | 7.6 | – | – | – | – | – | – | – | – |
| CC1=C(C)C(=O)O[C@@H]([C@@H](C)[C@H]2CC[C@H]3[C@@H]4C[C@H]5O[C@]56[C@@H](O)CCC(=O)[C@]6(C)[C@H]4CC[C@]23C)C1 | > 40 | > 40 | > 40 | > 40 | > 40 | > 40 | > 40 | > 40 | – | – | – | – | – | – | – | – |
| COCC1=C(C)C[C@H]([C@@H](C)[C@H]2CC[C@H]3[C@@H]4C[C@H]5O[C@]56[C@@H](O)[C@@H](OC)CC(=O)[C@]6(C)[C@H]4CC[C@]23C)OC1=O | > 40 | 21.6 | > 40 | > 40 | > 40 | > 40 | 36.9 | 26.9 | – | – | – | – | – | – | – | – |
| CC1=C(COC(=O)C(C)(C)C)C(=O)O[C@@H]([C@@H](C)[C@H]2CC[C@H]3[C@@H]4C[C@H]5O[C@]56C(=O)C=CC(=O)[C@]6(C)[C@H]4CC[C@]23C)C1 | 3.7 | 1.2 | 4 | 2.3 | 1.9 | 1 | 4.1 | 1 | – | – | – | – | – | – | – | – |
| CC1=C(CO)C(=O)O[C@@H]([C@@H](C)[C@H]2CC[C@H]3[C@@H]4C[C@H]5O[C@]56[C@@H](O)CC[C@@H](O)[C@]6(C)[C@H]4CC[C@]23C)C1 | > 40 | > 40 | > 40 | > 40 | > 40 | > 40 | > 40 | > 40 | – | – | – | – | – | – | – | – |
| CC1=C(CO)C(=O)O[C@@H]([C@@H](C)[C@H]2CC[C@H]3[C@@H]4C[C@H]5O[C@]56[C@@H](O)CCC(=O)[C@]6(C)[C@H]4CC[C@]23C)C1 | – | 12.2 | – | 19.7 | 32.2 | 24.2 | – | – | – | – | – | – | – | – | – | – |
| Sc1ncnc2nc[nH]c12 [MERCAPTOPURINE ANHYDROUS] | – | – | – | – | – | > 117 | – | – | – | – | – | – | – | – | – | – |
| Cc1c2oc3c(C)ccc(C(=O)N[C@@H]4C(=O)N[C@H](C(C)C)C(=O)N5CCC[C@H]5C(=O)N(C)CC(=O)N(C)[C@@H](C(C)C)C(=O)O[C@@H]4C)c3nc-2c(C(=O)N[C@@H]2C(=O)N[C@H](C(C)C)C(=O)N3CCC[C@H]3C(=O)N(C)CC(=O)N(C)[C@@H](C(C)C)C(=O)O[C@@H]2C)c(N)c1=O [DACTINOMYCIN] (I: T[dV]P[Sar][NMeV] / II: T[dV]P[Sar][NMeV]; ester I:1-I:C, II:1-II:C; linker I:N-II:N via Actinocin(1to9)) | – | 0.048 | – | 0.008 | 0.0032 | 0.011 | – | – | – | – | – | – | – | – | – | – |
| CC1=C(CO)C(=O)O[C@@H]([C@@H](C)[C@H]2CC[C@H]3[C@@H]4C[C@H](Cl)[C@]5(O)[C@@H](O)C=CC(=O)[C@]5(C)[C@H]4CC[C@]23C)C1 | – | 7.9 | – | 16.1 | 17.5 | – | – | – | – | – | – | – | – | – | – | – |
| CC1=C(CO[Si](C)(C)C(C)(C)C)C(=O)O[C@@H]([C@@H](C)[C@H]2CC[C@H]3[C@@H]4C[C@H]5O[C@]56[C@@H](O)C=CC(=O)[C@]6(C)[C@H]4CC[C@]23C)C1 | – | 1.2 | – | 4 | 3.1 | 0.8 | – | – | – | – | – | – | – | – | – | – |
